Source: PMC10939098 (Emerging Microbes & Infections, 2024)
Changes are numbered by the printed parent chain. Values after ≈ are worked out from the molar mass of the structure shown.

T1: PER-1 (Pseudomonas aeruginosa, UniProt P37321)
T1 sequence (P37321 27-308): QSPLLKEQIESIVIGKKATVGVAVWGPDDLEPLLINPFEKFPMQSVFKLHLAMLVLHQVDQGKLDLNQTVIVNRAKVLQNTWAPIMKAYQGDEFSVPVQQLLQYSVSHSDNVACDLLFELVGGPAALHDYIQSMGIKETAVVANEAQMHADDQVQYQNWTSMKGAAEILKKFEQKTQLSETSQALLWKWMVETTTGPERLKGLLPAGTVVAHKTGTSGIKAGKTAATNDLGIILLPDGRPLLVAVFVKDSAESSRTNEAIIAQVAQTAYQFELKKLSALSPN

T2: PER-4 (Pseudomonas aeruginosa, UniProt P37321, S135T)
T2 sequence (P37321 27-308 S135T): T1 sequence (P37321 27-308) with S109T

B1: PER-1 (Pseudomonas aeruginosa) (protein)
chain: T1 sequence (P37321 27-308)

Experiments:
[1] = system: PER-producing P. aeruginosa clinical isolates; assay: microbe, parasite or virus in culture; assay type: cell-based, Pseudomonas aeruginosa; conditions: for % resistance: share of isolates resistant
[2] = system: Recombinant PAO1 strains; assay: Broth microdilution MIC, recombinant PAO1 strains carrying blaPER; assay type: cell-based; conditions: Pseudomonas aeruginosa
[3] = system: PAO1 transconjugants carrying blaPER-1 plasmids; assay: Broth microdilution MIC, transconjugants and recipient PAO1-Rrif; assay type: cell-based; conditions: Pseudomonas aeruginosa
[4] = target: T1, PER-1; assay: Direct competition inhibition assay with nitrocefin, PER-1; assay type: biochemical
[5] = target: T2, PER-4; assay: Direct competition inhibition assay with nitrocefin, PER-4; assay type: biochemical; conditions: for fold higher IC50 value against PER-4 than against wild-type PER-1: PER-4 vs PER-1
[6] = target: T2, PER-4; assay: Steady-state enzyme kinetics, purified PER-4; assay type: biochemical; conditions: for Km / kcat: room temperature, 1×PBS pH 7.2
[7] = target: T1, PER-1; assay: Steady-state enzyme kinetics, purified PER-1; assay type: biochemical
[8] = substrate: CC(C)(O/N=C(\C(=O)N[C@@H]1C(=O)N2C(C(=O)[O-])=C(C[n+]3ccccc3)CS[C@H]12)c1csc(N)n1)C(=O)O; assay: Steady-state enzyme kinetics, purified PER-1; assay type: biochemical, Pseudomonas aeruginosa; conditions: other: PER-1, room temperature, 1×PBS pH 7.2
[9] = substrate: O=C(Cc1cccs1)N[C@@H]1C(=O)N2C(C(=O)O)=C(/C=C/c3ccc([N+](=O)[O-])cc3[N+](=O)[O-])CS[C@H]12; assay: Steady-state enzyme kinetics, purified PER-1; assay type: biochemical, Pseudomonas aeruginosa; conditions: other: PER-1, room temperature, 1×PBS pH 7.2
[10] = PAO1, strain PAO1-pGK1900 (empty vector)
[11] = PAO1, recipient strain PAO1-R^rif
[12] = PAO1, transconjugant PAO1/pPA268
[13] = PAO1, transconjugant PAO1/pPA272
[14] = PAO1, transconjugant PAO1/pPA282
[15] = PAO1, transconjugant PAO1/pPA975
[16] = PAO1, transconjugant PAO1/pPA1017
[17] = PAO1, transconjugant PAO1/pPA1018
[18] = Pseudomonas aeruginosa, isolate PA268
[19] = Pseudomonas aeruginosa, isolate PA272
[20] = Pseudomonas aeruginosa, isolate PA282
[21] = Pseudomonas aeruginosa, isolate PA975
[22] = Pseudomonas aeruginosa, isolate PA1017
[23] = Pseudomonas aeruginosa, isolate PA1018

| Molecule | % resistance ([1]; 56 PER-producing PA strains) | MIC50 ([1]; Pseudomonas aeruginosa) | MIC90 ([1]; Pseudomonas aeruginosa) | MIC ([2]; PAO1) | MIC [2, 10] | MIC ([2]; PAO1, strain PAO1-pGK1900-PER1) | MIC ([2]; PAO1, strain PAO1-pGK1900-PER4) | MIC [3, 12] | MIC [3, 13] | MIC [3, 14] | MIC [3, 15] | MIC [3, 16] | MIC [3, 17] | MIC [1, 18] | MIC [1, 19] | MIC [1, 20] | MIC [1, 21] | MIC [1, 22] | MIC [1, 23] | other results |
| --- | --- | --- | --- | --- | --- | --- | --- | --- | --- | --- | --- | --- | --- | --- | --- | --- | --- | --- | --- | --- |
| NCC[C@H](O)C(=O)N[C@@H]1C[C@H](N)[C@@H](O[C@H]2O[C@H](CN)[C@@H](O)[C@H](O)[C@H]2O)[C@H](O)[C@H]1O[C@H]1O[C@H](CO)[C@@H](O)[C@H](N)[C@H]1O [AMK, amikacin] | 94.64% | > 128 µg/mL | > 128 µg/mL |  |  |  |  |  |  |  |  |  |  |  |  |  |  |  |  |  |
| C[C@H]1[C@H](NC(=O)/C(=N\OC(C)(C)C(=O)O)c2csc(N)n2)C(=O)N1S(=O)(=O)O [AZT, aztreonam] |  |  |  | 4 µg/mL | 8 µg/mL | > 128 µg/mL | > 128 µg/mL | > 128 µg/mL | > 128 µg/mL | > 128 µg/mL | > 128 µg/mL | > 128 µg/mL | > 128 µg/mL |  |  |  |  |  |  | MIC [3, 11]: 2 µg/mL (≈ 4.59 µM) |
| NC(=O)[C@@H]1CC[C@@H]2CN1C(=O)N2OS(=O)(=O)O [Avibactam] |  |  |  |  |  |  |  |  |  |  |  |  |  |  |  |  |  |  |  | IC50 [4]: 217 nM; Ki [4]: 191 ± 4 nM; IC50 [5]: 729 µM; Ki [5]: 473 ± 29.2 µM; fold higher IC50 value against PER-4 than against wild-type PER-1 [5]: ~3359 fold |
| CC(C)(O/N=C(\C(=O)N[C@@H]1C(=O)N2C(C(=O)[O-])=C(C[n+]3ccccc3)CS[C@H]12)c1csc(N)n1)C(=O)O [CAZ, ceftazidime] | 100.00% | > 128 µg/mL | > 128 µg/mL | 1 µg/mL | 2 µg/mL | > 128 µg/mL | > 128 µg/mL | > 128 µg/mL | > 128 µg/mL | > 128 µg/mL | 128 µg/mL (≈ 234 µM) | > 128 µg/mL | > 128 µg/mL | > 128 µg/mL | > 128 µg/mL | > 128 µg/mL | > 128 µg/mL | > 128 µg/mL | > 128 µg/mL | Km [6]: 726 µM; kcat [6]: 607.66 s⁻¹; MIC range ([1]; 56 PER-producing PA strains): >128 mg/L; % resistance ([1]; 56 PER-producing PA strains, listed as ceftazidime): 100% |
| CC(C)(O/N=C(\C(=O)N[C@@H]1C(=O)N2C(C(=O)[O-])=C(C[N+]3(CCNC(=O)c4ccc(O)c(O)c4Cl)CCCC3)CS[C@H]12)c1csc(N)n1)C(=O)O [CFDC, Cefiderocol] |  |  |  | 1 µg/mL | 0.5 µg/mL | 2 µg/mL | 2 µg/mL | 2 µg/mL (≈ 2.66 µM) | 2 µg/mL (≈ 2.66 µM) | 2 µg/mL (≈ 2.66 µM) | 2 µg/mL (≈ 2.66 µM) | 2 µg/mL (≈ 2.66 µM) |  | 2 µg/mL (≈ 2.66 µM) | 2 µg/mL (≈ 2.66 µM) | 2 µg/mL (≈ 2.66 µM) | 1 µg/mL (≈ 1.33 µM) | 2 µg/mL (≈ 2.66 µM) | 1 µg/mL (≈ 1.33 µM) | MIC [3, 11]: 0.5 µg/mL (≈ 0.665 µM) |
| O=C(O)[C@H]1/C(=C/CO)O[C@@H]2CC(=O)N21 [Clavulanic acid] |  |  |  |  |  |  |  |  |  |  |  |  |  |  |  |  |  |  |  | IC50 [4]: 27 nM; Ki [4]: 24 ± 0.4 nM; IC50 [5]: 0.152 µM; Ki [5]: 0.099 ± 0.0006 µM; fold higher IC50 value against PER-4 than against wild-type PER-1 [5]: ~5.6 fold |
| CO/N=C(\C(=O)N[C@@H]1C(=O)N2C(C(=O)[O-])=C(C[N+]3(C)CCCC3)CS[C@H]12)c1csc(N)n1 [FEP, cefepime] |  |  |  | 1 µg/mL | 4 µg/mL | > 128 µg/mL | > 128 µg/mL | 128 µg/mL (≈ 266 µM) | 128 µg/mL (≈ 266 µM) | 128 µg/mL (≈ 266 µM) | 64 µg/mL (≈ 133 µM) | 128 µg/mL (≈ 266 µM) | 128 µg/mL (≈ 266 µM) |  |  |  |  |  |  | MIC [3, 11]: 2 µg/mL (≈ 4.16 µM) |
| C[C@@H](O)[C@H]1C(=O)N2C(C(=O)O)=C(SCCN=CN)C[C@H]12 [IPM, imipenem] | 92.86% | 16 µg/mL (≈ 53.4 µM) | 32 µg/mL (≈ 107 µM) | 1 µg/mL |  |  |  |  | 2 µg/mL (≈ 6.68 µM) |  |  |  | 32 µg/mL (≈ 107 µM) | 16 µg/mL (≈ 53.4 µM) | 16 µg/mL (≈ 53.4 µM) | 16 µg/mL (≈ 53.4 µM) | 16 µg/mL (≈ 53.4 µM) | 32 µg/mL (≈ 107 µM) | 32 µg/mL (≈ 107 µM) | imipenem hydrolysis activity [6]: hardly any detectable; MIC range ([1]; 56 PER-producing PA strains): 0.5 to 64 mg/L; imipenem hydrolysis activity ([7]; PER-1): hardly any detectable |
| C[C@H]1COc2c(N3CCN(C)CC3)c(F)cc3c(=O)c(C(=O)O)cn1c23 [LEV, levofloxacin] | 82.14% | 16 µg/mL (≈ 44.3 µM) | 32 µg/mL (≈ 88.6 µM) |  |  |  |  |  |  |  |  |  |  |  |  |  |  |  |  | MIC range ([1]; 56 PER-producing PA strains): 0.5 to 64 mg/L |
| C[C@@H](O)[C@H]1C(=O)N2C(C(=O)O)=C(S[C@@H]3CN[C@H](C(=O)N(C)C)C3)[C@H](C)[C@H]12 [MEM, meropenem] | 91.07% | 16 µg/mL (≈ 41.7 µM) | 64 µg/mL (≈ 167 µM) | 0.5 µg/mL | 1 µg/mL | 1 µg/mL | 1 µg/mL | 1 µg/mL (≈ 2.61 µM) | 1 µg/mL (≈ 2.61 µM) | 1 µg/mL (≈ 2.61 µM) | 2 µg/mL (≈ 5.22 µM) | 1 µg/mL (≈ 2.61 µM) | 32 µg/mL (≈ 83.4 µM) | 16 µg/mL (≈ 41.7 µM) | 32 µg/mL (≈ 83.4 µM) | 32 µg/mL (≈ 83.4 µM) | 16 µg/mL (≈ 41.7 µM) | 16 µg/mL (≈ 41.7 µM) | 32 µg/mL (≈ 83.4 µM) |  |
| O=C(Cc1cccs1)N[C@@H]1C(=O)N2C(C(=O)O)=C(/C=C/c3ccc([N+](=O)[O-])cc3[N+](=O)[O-])CS[C@H]12 [Nitrocefin] |  |  |  |  |  |  |  |  |  |  |  |  |  |  |  |  |  |  |  | Km [6]: 18.5 µM; kcat [6]: 224.03 s⁻¹; fold lower nitrocefin hydrolysis activity of PER-1 than PER-4 ([7]; PER-1 vs PER-4): ~1.7 fold |
| CCN1CCN(C(=O)N[C@@H](C(=O)N[C@@H]2C(=O)N3[C@@H]2SC(C)(C)[C@@H]3C(=O)O)c2ccccc2)C(=O)C1=O [PIP, piperacillin] | 98.21% | > 128 µg/mL | > 128 µg/mL | 4 µg/mL |  | 32 µg/mL | 16 µg/mL | > 128 µg/mL | > 128 µg/mL | > 128 µg/mL | 128 µg/mL (≈ 247 µM) | 128 µg/mL (≈ 247 µM) | > 128 µg/mL | > 128 µg/mL | > 128 µg/mL | > 128 µg/mL | 128 µg/mL (≈ 247 µM) | > 128 µg/mL | > 128 µg/mL |  |
| C[C@]1(Cn2ccnn2)[C@H](C(=O)O)N2C(=O)C[C@H]2S1(=O)=O [Tazobactam] |  |  |  |  |  |  |  |  |  |  |  |  |  |  |  |  |  |  |  | IC50 [4]: 363 nM; Ki [4]: 320 ± 13.1 nM; IC50 [5]: 1090 µM; Ki [5]: 707 ± 97.7 µM; fold higher IC50 value against PER-4 than against wild-type PER-1 [5]: ~3002 fold |
| colistin [CST] | 0.00% |  |  |  |  |  |  |  |  |  |  |  |  |  |  |  |  |  |  | MIC50 ([1]; 56 PER-producing PA strains): 2 µg/mL; MIC90 ([1]; 56 PER-producing PA strains): 2 µg/mL; MIC range ([1]; 56 PER-producing PA strains): 0.25 to 2 mg/L |
| B1 |  |  |  |  |  |  |  |  |  |  |  |  |  |  |  |  |  |  |  | Km [8]: 668.75 µM; kcat [8]: 537 s⁻¹; Km [9]: 72.92 µM; kcat [9]: 512 s⁻¹ |
